Test results reported in the NIST ThermoML archive (doi:10.1021/acs.jced.7b00564).

Experiment: xn = mol fraction of the nth substance listed
Details: Gas, isochoric method

F/C=C/C(F)(F)F [trans-1,3,3,3-tetrafluoropropene] + CC(C)C
Details | specific volume [m3/kg]
303.15 K, 259.6 kPa, x2 = 0.516 | 0.1062
303.15 K, 267.9 kPa, x2 = 0.29 | 0.0895
303.15 K, 304.9 kPa, x2 = 0.685 | 0.1004
303.15 K, 305.5 kPa, x2 = 0.428 | 0.0844
303.15 K, 321 kPa, x2 = 0.612 | 0.089
303.15 K, 367.4 kPa, x2 = 0.755 | 0.0856
308.15 K, 264.5 kPa, x2 = 0.516 | 0.1062
308.15 K, 273 kPa, x2 = 0.29 | 0.0895
308.15 K, 310.7 kPa, x2 = 0.685 | 0.1004
308.15 K, 311.3 kPa, x2 = 0.428 | 0.0844
308.15 K, 327.2 kPa, x2 = 0.612 | 0.089
308.15 K, 374.9 kPa, x2 = 0.755 | 0.0856
313.15 K, 269.2 kPa, x2 = 0.516 | 0.1062
313.15 K, 277.9 kPa, x2 = 0.29 | 0.0896
313.15 K, 316.5 kPa, x2 = 0.685 | 0.1005
313.15 K, 317.1 kPa, x2 = 0.428 | 0.0844
313.15 K, 333.4 kPa, x2 = 0.612 | 0.0891
313.15 K, 382.2 kPa, x2 = 0.755 | 0.0857
318.15 K, 274 kPa, x2 = 0.516 | 0.1063
318.15 K, 282.8 kPa, x2 = 0.29 | 0.0896
318.15 K, 322.2 kPa, x2 = 0.685 | 0.1005
318.15 K, 322.8 kPa, x2 = 0.428 | 0.0845
318.15 K, 339.5 kPa, x2 = 0.612 | 0.0891
318.15 K, 389.5 kPa, x2 = 0.755 | 0.0857
323.15 K, 278.8 kPa, x2 = 0.516 | 0.1063
323.15 K, 287.8 kPa, x2 = 0.29 | 0.0896
323.15 K, 328 kPa, x2 = 0.685 | 0.1005
323.15 K, 328.5 kPa, x2 = 0.428 | 0.0845
323.15 K, 345.6 kPa, x2 = 0.612 | 0.0891
323.15 K, 396.8 kPa, x2 = 0.755 | 0.0857
328.15 K, 283.5 kPa, x2 = 0.516 | 0.1063
328.15 K, 292.7 kPa, x2 = 0.29 | 0.0896
328.15 K, 333.7 kPa, x2 = 0.685 | 0.1005
328.15 K, 334.2 kPa, x2 = 0.428 | 0.0845
328.15 K, 351.7 kPa, x2 = 0.612 | 0.0891
328.15 K, 404 kPa, x2 = 0.755 | 0.0857
333.15 K, 288.2 kPa, x2 = 0.516 | 0.1063
333.15 K, 297.6 kPa, x2 = 0.29 | 0.0896
333.15 K, 339.5 kPa, x2 = 0.685 | 0.1005
333.15 K, 339.9 kPa, x2 = 0.428 | 0.0845
333.15 K, 357.8 kPa, x2 = 0.612 | 0.0891
333.15 K, 411.2 kPa, x2 = 0.755 | 0.0857
338.15 K, 292.9 kPa, x2 = 0.516 | 0.1064
338.15 K, 302.5 kPa, x2 = 0.29 | 0.0897
338.15 K, 345.1 kPa, x2 = 0.685 | 0.1006
338.15 K, 345.6 kPa, x2 = 0.428 | 0.0845
338.15 K, 363.8 kPa, x2 = 0.612 | 0.0892
338.15 K, 418.3 kPa, x2 = 0.755 | 0.0857
343.15 K, 297.6 kPa, x2 = 0.516 | 0.1064
343.15 K, 307.4 kPa, x2 = 0.29 | 0.0897
343.15 K, 350.8 kPa, x2 = 0.685 | 0.1006
343.15 K, 351.2 kPa, x2 = 0.428 | 0.0846
343.15 K, 369.8 kPa, x2 = 0.612 | 0.0892
343.15 K, 425.4 kPa, x2 = 0.755 | 0.0858
348.15 K, 302.3 kPa, x2 = 0.516 | 0.1064
348.15 K, 312.2 kPa, x2 = 0.29 | 0.0897
348.15 K, 356.5 kPa, x2 = 0.685 | 0.1006
348.15 K, 356.9 kPa, x2 = 0.428 | 0.0846
348.15 K, 375.8 kPa, x2 = 0.612 | 0.0892
348.15 K, 432.4 kPa, x2 = 0.755 | 0.0858
353.15 K, 307 kPa, x2 = 0.516 | 0.1064
353.15 K, 317.1 kPa, x2 = 0.29 | 0.0897
353.15 K, 362.1 kPa, x2 = 0.685 | 0.1006
353.15 K, 362.6 kPa, x2 = 0.428 | 0.0846
353.15 K, 381.8 kPa, x2 = 0.612 | 0.0892
353.15 K, 439.4 kPa, x2 = 0.755 | 0.0858
358.15 K, 311.7 kPa, x2 = 0.516 | 0.1064
358.15 K, 321.9 kPa, x2 = 0.29 | 0.0897
358.15 K, 367.7 kPa, x2 = 0.685 | 0.1007
358.15 K, 368.2 kPa, x2 = 0.428 | 0.0846
358.15 K, 387.8 kPa, x2 = 0.612 | 0.0892
358.15 K, 446.5 kPa, x2 = 0.755 | 0.0858
363.15 K, 316.4 kPa, x2 = 0.516 | 0.1065
363.15 K, 326.8 kPa, x2 = 0.29 | 0.0898
363.15 K, 373.3 kPa, x2 = 0.685 | 0.1007
363.15 K, 373.9 kPa, x2 = 0.428 | 0.0846
363.15 K, 393.7 kPa, x2 = 0.612 | 0.0892
363.15 K, 453.5 kPa, x2 = 0.755 | 0.0858
368.15 K, 321.1 kPa, x2 = 0.516 | 0.1065
368.15 K, 331.6 kPa, x2 = 0.29 | 0.0898
368.15 K, 379 kPa, x2 = 0.685 | 0.1007
368.15 K, 379.5 kPa, x2 = 0.428 | 0.0846
368.15 K, 399.7 kPa, x2 = 0.612 | 0.0893
368.15 K, 460.5 kPa, x2 = 0.755 | 0.0859
373.15 K, 325.7 kPa, x2 = 0.516 | 0.1065
373.15 K, 336.5 kPa, x2 = 0.29 | 0.0898
373.15 K, 384.7 kPa, x2 = 0.685 | 0.1007
373.15 K, 385.1 kPa, x2 = 0.428 | 0.0847
373.15 K, 405.6 kPa, x2 = 0.612 | 0.0893
373.15 K, 467.6 kPa, x2 = 0.755 | 0.0859
378.15 K, 330.4 kPa, x2 = 0.516 | 0.1065
378.15 K, 341.4 kPa, x2 = 0.29 | 0.0898
378.15 K, 390.3 kPa, x2 = 0.685 | 0.1007
378.15 K, 390.7 kPa, x2 = 0.428 | 0.0847
378.15 K, 411.7 kPa, x2 = 0.612 | 0.0893
378.15 K, 474.5 kPa, x2 = 0.755 | 0.0859
383.15 K, 335.1 kPa, x2 = 0.516 | 0.1066
383.15 K, 346.2 kPa, x2 = 0.29 | 0.0898
383.15 K, 395.9 kPa, x2 = 0.685 | 0.1008
383.15 K, 396.3 kPa, x2 = 0.428 | 0.0847
383.15 K, 417.6 kPa, x2 = 0.612 | 0.0893
383.15 K, 481.6 kPa, x2 = 0.755 | 0.0859
